Assay results taken from patent US12410209B2, “Modified glucocorticoids” (Board of Regents, The University of Texas System, priority 2021, dated 2025).

Tests used:
Assay type in all cases: cell-based, human
HaCaT cells = test: MTT assay for cell viability; conditions: for sensitivity of cells to glucocorticoid treatment (cell proliferation): normal HaCaT cells compared to cancerous PM1 and Met4 cells
IL-1β mRNA = test: qPCR analysis of LPS-induced IL-1β mRNA; conditions: HaCat cells, LPS-induced inflammation, FIG. 5
Excerpt: qPCR analysis is shown FIG. 5.

PM1 cells = test: MTT assay for cell viability; conditions: cancerous PM-1 cells, range of concentrations, FIG. 2
Met4 cells = test: MTT assay for cell viability; conditions: cancerous Met4 cells, range of concentrations, FIG. 2

Structure (SMILES) | sensitivity of cells to glucocorticoid treatment (cell proliferation) (HaCaT cells) | LPS-induced increase of inflammatory cytokine IL-1β (IL-1β mRNA) | potency against cell proliferation compared with cortisol (HaCaT cells; normal HaCaT cells, range of concentrations, FIG. 2) | potency against cell proliferation compared with cortisol (PM1 cells) | potency against cell proliferation compared with cortisol (Met4 cells)
C[C@]12CCC(=O)C=C1CC[C@@H]1[C@@H]2[C@@H](O)C[C@@]2(C)[C@H]1CC[C@]2(O)C(=O)CO [cortisol, reference compound] | more sensitive | significantly suppressed | – | – | –
C[C@]12CCC(=O)C=C1CC[C@@H]1[C@@H]2[C@@H](F)C[C@@]2(C)[C@H]1CC[C@]2(O)C(=O)CO [F-MOD, 11-deoxyfluorocortisol] | more sensitive | significantly suppressed | at least as powerful as the original cortisol | at least as powerful as the original cortisol if not stronger | at least as powerful as the original cortisol
